Measurements reported in patent US12435087B2, “Modulators of DCN-1 and methods of use thereof” (Cellarity, Inc., priority 2023, dated 2025).
Where two headings read alike, the source gives them in different places.

Experiments:
DCN1 protein = DCN1 protein (Homo sapiens (Human), UniProt Q96GG9); experiment: Intact protein MS analysis with the RapidFire-TOF system (covalent adduct formation); assay type: binding; conditions: 400 nM DCN1, incubated at room temperature for 3 hours
Protocol: (§1) DCN1 protein, His-TEV-DCN1, were expressed in E. Coli. The His-tagged protein was first purified with an Ni-NTA column. The His-tag was cleaved using His-tag TEV protease and the His-tags were removed using a second Ni-NTA column. Protein purity was verified with SDS-PAGE and intact MS. DCN1 was dissolved in a buffer containing 25 mM Tris-HCl, 200 mM NaCl, and 1 mM DTT at 400 nM. 11 concentrations of compounds were added to the DCN1 solution and incubated at room temperature for 3 hours, unless otherwise specified. The reaction plates were quenched by adding 0.2% formic acid. Quenched assay plates were analyzed with an Agilent RapidFire 360 system connected to an Agilent 6545 Q-TOF mass spectrometer equipped with an AJS source. 10 μL of sample volume was loaded onto a custom packed cartridge (4 μL, PLRP-S 30 μm/1000 Å pore; Optimize Technologies) with loading buffer (ddH2O with 0.09% (vol/vol) formic acid and 0.01% (vol/vol) trifluoroacetic acid; 1.25 ml/min) for 6 seconds before being eluted directly into the mass spectrometer in elution buffer (80% acetonitrile with 0.09% (vol/vol) formic acid and 0.01% (vol/vol) trifluoroacetic acid; 0.5 ml/min) for 7 seconds. The cartridge was re-equilibrated with loading buffer for 1 second before collection of the next sample. The Q-TOF was operated in TOF-only positive ionization mode set to the following parameters: Gas Temp=350 C, Drying Gas=7 l/min, Nebulizer=50 psi, Sheath Gas Temp=400 C, Sheath Gas Flow=12 l/min, VCap=4000 V, Nozzle Voltage=1000 V, Fragmentor=125 V, Skimmer=65 V and Oct 1 RF Vpp=750V. Raw MS data files were deconvoluted and analyzed using the Agilent MassHunter Bioconfirm software package to identify both parent protein and expected compound adduct mass signatures.
An MS assay was performed to evaluate the ability of the compounds to covalently modify DCN-1.
as §1, with “Vcap=4000” for “VCap=4000”

[1] = target: DCN1 (DCUND1) protein PONY domain (Homo sapiens (Human), UniProt Q96GG9); experiment: TR-FRET assay (binding to DCN-1, displacement of FAM-labeled probe)
In short: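 Compounds read at 1, 5 and 24 h, 0.1% final DMSO, by TR-FRET between terbium-streptavidin on biotinylated DCN1 PONY domain (E. coli) and a FAM-tagged non-covalent inhibitor probe. Two setups used, 5 nM protein with 20 nM labelled probe, or 0.31 nM protein with 100 nM labelled plus 800 nM unlabelled probe; buffer had TritonX and 200 mM NaCl. % activity relative to high (with probe) and low (without probe) controls.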

[2] = 24 hr after treatment with compound, read-out: TR FRET IC50 24 hr
[3] = TR FRET IC50 1 hr (nM), 1 hr after treatment with compound
[4] = read-out: TR FRET IC50 1 hr, 1 hr after treatment with compound

Chain of DCN1 (DCUND1) protein PONY domain (Q96GG9 60-248): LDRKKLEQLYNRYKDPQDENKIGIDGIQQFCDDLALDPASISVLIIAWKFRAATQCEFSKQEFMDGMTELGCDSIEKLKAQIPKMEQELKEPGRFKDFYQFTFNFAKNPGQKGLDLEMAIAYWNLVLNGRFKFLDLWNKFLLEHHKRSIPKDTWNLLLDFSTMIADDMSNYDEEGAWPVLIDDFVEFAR
Chain of DCN1 protein (Q96GG9 whole entry): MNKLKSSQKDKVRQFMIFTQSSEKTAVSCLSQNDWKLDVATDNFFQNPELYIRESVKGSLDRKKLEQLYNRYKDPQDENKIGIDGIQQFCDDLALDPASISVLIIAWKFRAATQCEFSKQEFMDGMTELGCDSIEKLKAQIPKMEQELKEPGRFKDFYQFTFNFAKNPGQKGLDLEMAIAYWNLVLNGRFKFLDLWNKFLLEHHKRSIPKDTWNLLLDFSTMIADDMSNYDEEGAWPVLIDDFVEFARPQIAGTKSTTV

SMILES	Emax (DCN1 protein) [%]	IC50 [1, 2] [nM]	also measured
C=CC(=O)Nc1cccc([C@H]2c3c(C)nn(-c4ccccc4)c3N(CC)C(=O)[C@H]2NC(=O)c2cccc(C(F)(F)F)c2)c1 (racemic) [Compound I-25]	0 to 30	> 3000	IC50 [1, 3]: > 3000 nM
C/C=C(\CN1CCN(C2COC2)CC1)C(=O)NCc1cccc([C@@H]2c3cnn(-c4ccccc4)c3N(CC)C(=O)[C@H]2NC(=O)c2cccc(C(F)(F)F)c2)c1 [Compound I-222]	80 to 100	≤ 200	IC50 [1, 3]: 200 to 1000 nM
C=C(CN1CCC(F)(F)C1)C(=O)Nc1cccc([C@@H]2c3c(C)nn(-c4ccccc4)c3N(CC)C(=O)[C@H]2NC(=O)c2nccc(C(F)(F)F)n2)c1 [Compound I-228]	80 to 100	≤ 200	IC50 [1, 4]: ≤ 200 nM
C=CC(=O)Nc1cccc([C@H]2c3c(C)nn(-c4ccccc4)c3N(CC)C(=O)[C@@H]2NC(=O)c2cccc(C(F)(F)F)c2)c1 (racemic) [Compound I-77]	80 to 100	200 to 1000	IC50 [1, 3]: 1000 to 3000 nM
C=C(CN1CCC1)C(=O)Nc1cccc([C@H]2c3c(C)nn(-c4ccccc4)c3N(CC)C(=O)[C@@H]2NC(=O)c2cccc(C(F)(F)F)c2)c1 (racemic) [Compound I-137]	80 to 100	≤ 200	IC50 [1, 4]: ≤ 200 nM
C=C(CN1CCN(C2COC2)CC1)C(=O)N(C)Cc1cccc([C@@H]2c3cnn(-c4ccccc4)c3N(CC)C(=O)[C@H]2NC(=O)c2cccc(C(F)(F)F)c2)c1 [Compound I-218]	80 to 100	≤ 200	IC50 [1, 3]: ≤ 200 nM
CCN1C(=O)[C@@H](NC(=O)c2cccc(C(F)(F)F)c2)[C@@H](c2cccc(NC(=O)C3=CCCC3)c2)c2c(C)nn(-c3ccccc3)c21 (racemic) [Compound I-24]	0 to 30	> 3000	IC50 [1, 3]: > 3000 nM
C=C(CN(C)C1COC1)C(=O)NCc1cccc([C@@H]2c3cnn(-c4ccccc4)c3N(CC)C(=O)[C@H]2NC(=O)c2cccc(C(F)(F)F)c2)c1 [Compound I-66]	80 to 100	≤ 200	IC50 [1, 4]: ≤ 200 nM
CCN1C(=O)[C@H](NC(=O)c2cccc(C(F)(F)F)c2)[C@@H](c2cccc(NC(=O)/C=C/CN(C)C)c2)c2c(C)nn(-c3ccccc3)c21 (racemic) [Compound I-38]	80 to 100	–	IC50 [1, 3]: 1000 to 3000 nM
CCN1C(=O)[C@H](NC(=O)c2cccc(C(F)(F)F)c2)[C@@H](c2cccc(NC(=O)/C(C#N)=C/C3CC3)c2)c2c(C)nn(-c3ccccc3)c21 (racemic) [Compound I-68, rac-N-((4R,5S)-4-(3-((E)-2-cyano-3-cyclopropylacrylamido)phenyl)-7-ethyl-3-methyl-6-oxo-1-phenyl-4,5,6,7-tetrahydro-1H-pyrazolo[3,4-b]pyridin-5-yl)-3-(trifluoromethyl)benzamide]	80 to 100	200 to 1000	IC50 [1, 3]: ≤ 200 nM
C=C(CN1CCOCC1)C(=O)Nc1ccccc1[C@H]1c2cnn(-c3ccccc3)c2N(CC)C(=O)[C@@H]1NC(=O)c1cccc(C(F)(F)F)c1 (racemic) [Compound I-15]	80 to 100	≤ 200	IC50 [1, 4]: ≤ 200 nM
CCN1C(=O)[C@H](NC(=O)c2cccc(C(F)(F)F)c2)[C@@H](c2ccccc2NC(=O)[C@H](C)Cl)c2c(C)nn(-c3ccccc3)c21 (mixture of isomers) [Compound I-182]	–	–	% Adduct Formation (MS Emax) (DCN1 protein): + (MS Emax % adduct formation greater than or equal to 0.0 and less than or equal to 30.0)
C=CS(=O)(=O)Nc1cccc([C@H]2c3c(C)nn(-c4ccccc4)c3N(CC)C(=O)[C@H]2NC(=O)c2cccc(C(F)(F)F)c2)c1 (racemic) [Compound I-186]	30 to 80	–	–
C=C(C)C(=O)Nc1ccccc1[C@H]1c2c(C)nn(-c3ccccc3)c2N(CC)C(=O)[C@@H]1NC(=O)c1cccc(C(F)(F)F)c1 (racemic) [Compound I-165]	0 to 30	–	–
CCN1C(=O)[C@H](NC(=O)c2cccc(C(F)(F)F)c2)[C@@H](c2cccc(NC(=O)COc3c(F)c(F)cc(F)c3F)c2)c2c(C)nn(-c3ccccc3)c21 (racemic) [Compound I-171]	0 to 30	–	–
CCN1C(=O)[C@@H](NC(=O)c2cccc(C(F)(F)F)c2)[C@@H](c2cccc(NC(=O)[C@H](C)Br)c2)c2c(C)nn(-c3ccccc3)c21 (mixture of isomers) [Compound I-204]	0 to 30	–	–
CCN1C(=O)[C@H](NC(=O)c2cccc(C(F)(F)F)c2)[C@@H](c2ccccc2NC(=O)/C=C/C(=O)OC)c2cnn(-c3ccccc3)c21 (racemic) [Compound I-167]	80 to 100	–	–
CCN1C(=O)[C@H](NC(=O)c2cccc(C(F)(F)F)c2)[C@@H](c2ccccc2NC(=O)C(Cl)Cl)c2cnn(-c3ccccc3)c21 (racemic) [Compound I-198]	0 to 30	–	–
CCN1C(=O)[C@H](NC(=O)c2cccc(C(F)(F)F)c2)[C@@H](c2ccccc2NC(=O)[C@@H](C)Cl)c2cnn(-c3ccccc3)c21 (mixture of isomers) [Compound I-185]	0 to 30	–	–
CCN1C(=O)[C@H](NC(=O)c2cccc(C(F)(F)F)c2)[C@@H](c2ccccc2NC(=O)C2=CCC2)c2cnn(-c3ccccc3)c21 (racemic) [Compound I-195]	0 to 30	–	–
C#CC(=O)Nc1cccc([C@H]2c3c(C)nn(-c4ccccc4)c3N(CC)C(=O)[C@@H]2NC(=O)c2cccc(C(F)(F)F)c2)c1 (racemic) [Compound I-207]	80 to 100	–	–
CCN1C(=O)[C@H](NC(=O)c2cccc(C(F)(F)F)c2)[C@@H](c2cccc(NS(=O)(=O)CCl)c2)c2c(C)nn(-c3ccccc3)c21 (racemic) [Compound I-209]	0 to 30	–	–
CCN1C(=O)[C@H](NC(=O)c2cccc(C(F)(F)F)c2)[C@@H](c2ccccc2NC(=O)C(F)Cl)c2cnn(-c3ccccc3)c21 (mixture of isomers) [Compound I-174]	0 to 30	–	–
CCN1C(=O)[C@H](NC(=O)c2cccc(C(F)(F)F)c2)[C@@H](c2cccc(NC(=O)[C@H](C)Br)c2)c2c(C)nn(-c3ccccc3)c21 (mixture of isomers) [Compound I-180]	80 to 100	–	–
CCN1C(=O)[C@@H](NC(=O)c2cccc(C(F)(F)F)c2)[C@@H](c2cccc(NS(=O)(=O)CCl)c2)c2c(C)nn(-c3ccccc3)c21 (racemic) [Compound I-184]	0 to 30	–	–
CCN1C(=O)[C@H](NC(=O)c2cccc(C(F)(F)F)c2)[C@@H](c2ccccc2NC(=O)[C@H](C)Cl)c2c(C)nn(-c3ccccc3)c21 (mixture of isomers) [Compound I-181]	–	–	% Adduct Formation (MS Emax) (DCN1 protein): ++ (MS Emax % adduct formation greater than 30.0 and less than or equal to 80.0)
CCN1C(=O)[C@H](NC(=O)c2cccc(C(F)(F)F)c2)[C@@H](c2ccccc2NC(=O)CCl)c2cnn(-c3ccccc3)c21 (racemic) [Compound I-170]	–	–	% Adduct Formation (MS Emax) (DCN1 protein): +++ (MS Emax % adduct formation greater than 80.0 and less than or equal to 100.0)
CCN1C(=O)[C@@H](NC(=O)c2cccc(C(F)(F)F)c2)[C@@H](c2ccccc2NC(=O)CCl)c2c(C)nn(-c3ccccc3)c21 (racemic) [Compound I-191]	80 to 100	–	–
C=C(C)C(=O)Nc1cccc([C@H]2c3c(C)nn(-c4ccccc4)c3N(CC)C(=O)[C@@H]2NC(=O)c2cccc(C(F)(F)F)c2)c1 (racemic) [Compound I-201]	0 to 30	–	–
